Patent publication EP0293500A1, “3-heteroalkyl-2,4.quinzaoline-diones” (AMERICAN CYANAMID COMPANY, priority 1987, dated 1988)
Structures can show the parent of a compound that is named as a salt.

Target: T1, thromboxane synthetase (Rattus norvegicus, UniProt P49430)
T1 construct: The platelets were isolated by centrifuging the PRP for 10 minutes at 1060xg; from tissue; host or cells: washed blood platelets from Okamoto-Aoki spontaneously hypertensive rats (SHR)
T1 sequence (P49430 1-533): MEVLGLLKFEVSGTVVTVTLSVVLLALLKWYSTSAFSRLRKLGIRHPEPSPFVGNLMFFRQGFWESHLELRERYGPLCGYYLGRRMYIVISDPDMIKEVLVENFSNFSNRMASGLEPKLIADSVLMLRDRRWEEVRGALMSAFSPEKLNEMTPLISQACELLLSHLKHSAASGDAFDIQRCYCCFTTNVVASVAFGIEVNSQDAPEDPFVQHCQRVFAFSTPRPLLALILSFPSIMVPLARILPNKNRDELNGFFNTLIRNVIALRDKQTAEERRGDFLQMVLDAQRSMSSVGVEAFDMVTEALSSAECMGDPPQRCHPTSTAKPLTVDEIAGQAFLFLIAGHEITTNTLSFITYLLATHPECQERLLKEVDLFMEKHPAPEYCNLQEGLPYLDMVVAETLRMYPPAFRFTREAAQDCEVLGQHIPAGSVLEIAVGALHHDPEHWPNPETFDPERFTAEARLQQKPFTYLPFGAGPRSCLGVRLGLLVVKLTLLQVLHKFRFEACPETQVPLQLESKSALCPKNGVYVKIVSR
Assay: Inhibition of thromboxane (TX) formation (TXB2 radioimmunoassay) in washed rat platelets
Assay type: cell-based, Okamoto-Aoki spontaneously hypertensive rats (SHR)
Conditions: percent inhibition of TXB2 formation; drug at 10^-4M; SHR platelet suspension, 10 minutes at 37 C
Source text: The platelet rich plasma (PRP) was separated. […] The inhibition of thromboxane (TX) formation was studied by determing the concentration of thromboxane […] (TXB2), the stable hydrolysis product of TXA2.

| inhibition at 100 µM | Compound |
| --- | --- |
| 97% | O=c1c2cc(Cl)ccc2nnn1CCCCn1ccnc1 [6-Chloro-3-[4-(1H-imidazol-1-yl)butyl]-1,2,3-benzotriazin-4(3H)-one, monohydro-chloride] |
| 100% | O=c1[nH]c2ccc([N+](=O)[O-])cc2c(=O)n1CCCn1ccnc1 [Example 15, 3-[3-(1H-Imidazol-1-yl)propyl]-6-nitro-2,4(1H,3H)-quinazolinedione] |
| 100% | O=c1[nH]c2ccc(Cl)cc2c(=O)n1CCCCc1cccnc1 [Example 29, 6-Chloro-3-[4-(3-pyridinyl)butyl]-2,4(1H,3H)-quinazolinedione] |
| 63% | O=c1[nH]c2ccc(Cl)cc2c(=O)n1CCCCCn1ccnc1 [Example 32, 6-Chloro-3-[5-(1H-imidazol-1-yl)pentyl]-2,4(1H,3H)-quinazolinedione] |
| 89% | O=c1[nH]c2c(Cl)cc(Cl)cc2c(=O)n1CCCCn1ccnc1 [Example 46, 6,8-Dichloro-3-[4-(1H-imidazol-1-yl)-butyl]-2,4(1H,3H)-quinazolinedione] |
| 100% | O=c1[nH]c2ccc(Br)cc2c(=O)n1CCCn1ccnc1 [Example 51, 6-Bromo-3-[3-(1H-imidazol-1-yl)propyl]-2,4(1H,3H)-quinazolinedione] |
| 90% | O=c1c2ccc(Cl)cc2nnn1CCCCn1ccnc1 [Example 80, 7-Chloro-3-[4-(1H-imidazol-1-yl)-butyl]-1,2,3-benzotriazin-4(3H)-one] |

More lines, now with the values behind:

| Compound | inhibition at 100 µM |
| --- | --- |
| O=c1c2cc(Br)ccc2ncn1CCCCc1cccnc1 [6-Bromo-3-[4-(3-pyridyl)butyl]-4(3H)-quinazolinone] | 99% |
| CC(Cn1ccnc1)Cn1nnc2ccc(Cl)cc2c1=O (stereo not drawn) [6-Chloro-3-[3-(1H-imidazol-1-yl)-2-methyl-propyl]-1,2,3-benzotriazin-4(3H)-one, mono-hydrochloride] | 93% |
| O=c1[nH]c2ccccc2c(=O)n1CCCCc1cccnc1 [Example 22, 3-[4-(3-Pyridinyl)butyl]-2,4(1H,3H)-quinazolinedione] | 99% |
| O=c1[nH]c2ccc(Cl)cc2c(=O)n1CCCn1ccnc1-c1ccccc1 [Example 27, 6-Chloro-3-[3-(2-phenyl-1H-imidazol-1-yl)propyl]-2,4(1H,3H)-quinazolinedione] | 52% |
| O=c1[nH]c2ccc(Cl)cc2c(=O)n1CCC(c1ccccc1)n1ccnc1 (stereo not drawn) [Example 36, 6-Chloro-3-[3-(1H-imidazol-1-yl)-3-phenylpropyl]-2,4(1H,3H)-quinazolinedione] | 93% |
| CC(Cn1ccnc1)Cn1c(=O)[nH]c2c(Cl)cccc2c1=O (stereo not drawn) [Example 45, 8-Chloro-3-[3-(1H-imidazol-1-yl)-2-methylpropyl]-2,4(1H,3H)-quinazolinedione] | 71% |
| CC(CCn1c(=O)[nH]c2c(Cl)cc(Cl)cc2c1=O)n1ccnc1 (stereo not drawn) [Example 47, 6,8-Dichloro-3-[3-(1H-imidazol-1-yl)-butyl]-2,4(1H,3H)-quinazolinedione] | 67% |
| CC(Cn1ccnc1)Cn1c(=O)[nH]c2c(Cl)cc(Cl)cc2c1=O (stereo not drawn) [Example 48, 6,8-Dichloro-3-[3-(1H-imidazol-1-yl)-2-methylpropyl]-2,4(1H,3H)-quinazoline-dione] | 86% |
| CC(Cn1ccnc1)Cn1nnc2ccccc2c1=O (stereo not drawn) [Example 78, 3-[3-(1H-Imidazol-1-yl)-2-methyl-propyl]-1,2,3-benzotriazin-4(3H)-one, monohydrochloride] | 92% |
| O=c1c2cc(Cl)cc(Cl)c2nnn1CCCCn1ccnc1 [Example 81, 6,8-Dichloro-3-[4-(1H-imidazol-1-yl)butyl]-1,2,3-benzotriazin-4(3H)-one, monohydrochloride] | 93% |
| CC(Cn1ccnc1)Cn1nnc2ccc(Br)cc2c1=O (stereo not drawn) [Example 83, 6-Bromo-3-[3-(1H-imidazol-1-yl)--2-methylpropyl]-1,2,3-benzo-triazin-4(3H)-one] | 99% |
